Measurements: article PMC5218480 (PLoS ONE, 2017)

System: MV-4-11 cells
Test: Gene expression microarray analysis (Affymetrix PrimeView) and GSEA
Format: cell-based, human
Set-up: RFU PODN (11730768_x_at) / Fold change /veh PODN (11730768_x_at) / RFU LINC00158 (11744669_a_at) / Fold change /veh LINC00158 (11744669_a_at) / RFU DUSP10 (11751237_a_at) / Fold change /veh DUSP10 (11751237_a_at) / RFU ID3 (11757404_x_at) / Fold change /veh ID3 (11757404_x_at) / RFU PLEKHG5 (11737974_s_at) / Fold change /veh PLEKHG5 (11737974_s_at) / RFU LRRC4B (11730491_at) / Fold change /veh LRRC4B (11730491_at) / RFU GIMAP4 (11747438_a_at) / Fold change /veh GIMAP4 (11747438_a_at) / RFU KRT8 (11758183_x_at) / Fold change /veh KRT8 (11758183_x_at) / RFU CNN1 (11734310_a_at) / Fold change /veh CNN1 (11734310_a_at) / RFU VPS37D (11726825_at) / Fold change /veh VPS37D (11726825_at) / RFU C10orf10 (11716522_x_at) / Fold change /veh C10orf10 (11716522_x_at) / RFU KIR2DL2 /// KIR2DL4 /// KIR2DL5A /// KIR2DL5B /// KIR2DS1 /// KIR2DS2 /// KIR2DS3 /// KIR2DS4 /// KIR3DL3 /// KIR3DL3 /// KIR3DS1 (11738374_at) / Fold change /veh KIR2DL2 /// KIR2DL4 /// KIR2DL5A /// KIR2DL5B /// KIR2DS1 /// KIR2DS2 /// KIR2DS3 /// KIR2DS4 /// KIR3DL3 /// KIR3DL3 /// KIR3DS1 (11738374_at) / RFU C1QL1 (11718748_at) / Fold change /veh C1QL1 (11718748_at) / RFU TMPRSS4 (11747572_a_at) / Fold change /veh TMPRSS4 (11747572_a_at) / RFU HAMP (11756126_x_at) / Fold change /veh HAMP (11756126_x_at) / RFU RNFT2 (11725882_a_at) / Fold change /veh RNFT2 (11725882_a_at) / RFU NR4A2 (11747474_a_at) / Fold change /veh NR4A2 (11747474_a_at) / RFU ABCC12 (11746883_a_at) / Fold change /veh ABCC12 (11746883_a_at) / RFU TMEM136 (11760407_x_at) / Fold change /veh TMEM136 (11760407_x_at) / RFU CLDN22 /// WWC2 (11732394_at) / Fold change /veh CLDN22 /// WWC2 (11732394_at) / RFU HLA-DPB1 (11760878_x_at) / Fold change /veh HLA-DPB1 (11760878_x_at) / RFU SPINT1 (11716480_a_at) / Fold change /veh SPINT1 (11716480_a_at) / RFU GAP43 (11754022_s_at) / Fold change /veh GAP43 (11754022_s_at) / RFU A4GNT (11735810_at) / Fold change /veh A4GNT (11735810_at) / RFU PRB3 (11715151_x_at) / Fold change /veh PRB3 (11715151_x_at) / RFU TUBB4B (11761932_at) / Fold change /veh TUBB4B (11761932_at) / RFU CAPN14 (11732068_a_at) / Fold change /veh CAPN14 (11732068_a_at) / RFU TMCC2 (11721928_a_at) / Fold change /veh TMCC2 (11721928_a_at) / RFU IRGQ (11745062_a_at) / Fold change /veh IRGQ (11745062_a_at) / RFU FAM174B (11720279_a_at) / Fold change /veh FAM174B (11720279_a_at) / RFU TMPRSS4 (11748680_a_at) / Fold change /veh TMPRSS4 (11748680_a_at) / RFU FAM212B (11763350_a_at) / Fold change /veh FAM212B (11763350_a_at) / RFU PLEKHG5 (11743358_a_at) / Fold change /veh PLEKHG5 (11743358_a_at) / RFU ZSCAN30 (11745921_a_at) / Fold change /veh ZSCAN30 (11745921_a_at) / RFU CMKLR1 (11741424_a_at) / Fold change /veh CMKLR1 (11741424_a_at) / RFU LOC101060620 /// MAPK8IP1 (11723275_at) / Fold change /veh LOC101060620 /// MAPK8IP1 (11723275_at) / RFU SPTSSB (11747773_x_at) / Fold change /veh SPTSSB (11747773_x_at) / RFU PRSS12 (11739890_at) / Fold change /veh PRSS12 (11739890_at) / RFU BIN1 (11741810_x_at) / Fold change /veh BIN1 (11741810_x_at) / RFU WNT11 (11732464_a_at) / Fold change /veh WNT11 (11732464_a_at) / RFU C10orf10 (11716521_a_at) / Fold change /veh C10orf10 (11716521_a_at) / RFU C5orf56 (11738089_at) / Fold change /veh C5orf56 (11738089_at) / RFU CYB561 (11721691_x_at) / Fold change /veh CYB561 (11721691_x_at) / RFU ANKRD19P (11752326_a_at) / Fold change /veh ANKRD19P (11752326_a_at) / RFU OR2T12 /// OR2T33 /// OR2T8 (11738714_s_at) / Fold change /veh OR2T12 /// OR2T33 /// OR2T8 (11738714_s_at) / RFU VCAN (11748164_a_at) / Fold change /veh VCAN (11748164_a_at) / RFU JSRP1 (11732532_at) / Fold change /veh JSRP1 (11732532_at) / RFU KRTAP10-11 (11738290_x_at) / Fold change /veh KRTAP10-11 (11738290_x_at) / RFU MYO3A (11730013_a_at) / Fold change /veh MYO3A (11730013_a_at) / RFU EBF3 (11725865_a_at) / Fold change /veh EBF3 (11725865_a_at) / RFU CAMK2N1 (11719241_x_at) / Fold change /veh CAMK2N1 (11719241_x_at) / RFU C5orf56 (11738088_a_at) / Fold change /veh C5orf56 (11738088_a_at) / RFU OLFML3 (11715873_a_at) / Fold change /veh OLFML3 (11715873_a_at) / RFU LOC100653217 /// NTM (11731650_a_at) / Fold change /veh LOC100653217 /// NTM (11731650_a_at) / RFU MAPK11 (11762145_a_at) / Fold change /veh MAPK11 (11762145_a_at) / RFU FIZ1 (11724087_x_at) / Fold change /veh FIZ1 (11724087_x_at) / RFU OASL (11726364_x_at) / Fold change /veh OASL (11726364_x_at) / RFU SOX15 (11748057_x_at) / Fold change /veh SOX15 (11748057_x_at) / RFU CD79A (11719716_a_at) / Fold change /veh CD79A (11719716_a_at) / RFU HIST1H1D (11736915_at) / Fold change /veh HIST1H1D (11736915_at) / RFU CASKIN2 (11723855_a_at) / Fold change /veh CASKIN2 (11723855_a_at) / RFU LOC730098 (11760151_x_at) / Fold change /veh LOC730098 (11760151_x_at) / RFU OR4N2 (11742367_at) / Fold change /veh OR4N2 (11742367_at) / RFU PRRT2 (11749266_a_at) / Fold change /veh PRRT2 (11749266_a_at) / RFU SNX32 (11753110_a_at) / Fold change /veh SNX32 (11753110_a_at) / RFU CDHR5 (11726645_a_at) / Fold change /veh CDHR5 (11726645_a_at) / RFU RCAN1 (11760418_a_at) / Fold change /veh RCAN1 (11760418_a_at) / RFU FAM167A (11723789_a_at) / Fold change /veh FAM167A (11723789_a_at) / RFU FAM26E (11764081_at) / Fold change /veh FAM26E (11764081_at) / RFU ISYNA1 (11749810_s_at) / Fold change /veh ISYNA1 (11749810_s_at) / RFU ACY1 (11761880_at) / Fold change /veh ACY1 (11761880_at) / RFU 11764098_at / Fold change /veh 11764098_at / RFU SAMD14 (11745864_x_at) / Fold change /veh SAMD14 (11745864_x_at) / RFU NPB (11741838_a_at) / Fold change /veh NPB (11741838_a_at) / RFU TMPRSS6 (11731388_a_at) / Fold change /veh TMPRSS6 (11731388_a_at) / RFU KRTAP10-2 (11738614_at) / Fold change /veh KRTAP10-2 (11738614_at) / RFU ARHGAP8 /// PRR5-ARHGAP8 (11727945_x_at) / Fold change /veh ARHGAP8 /// PRR5-ARHGAP8 (11727945_x_at) / RFU KRTAP5-7 /// NADSYN1 (11734609_at) / Fold change /veh KRTAP5-7 /// NADSYN1 (11734609_at) / RFU RASL12 (11751679_a_at) / Fold change /veh RASL12 (11751679_a_at) / RFU CDKN2B (11736163_a_at) / Fold change /veh CDKN2B (11736163_a_at) / RFU PRF1 (11729649_at) / Fold change /veh PRF1 (11729649_at) / RFU, ZNF638 /// ZNF638-IT1 / Fold change vs veh, ZNF638 /// ZNF638-IT1 / RFU, PANK3 / Fold change vs veh, PANK3 / RFU, SH3YL1 / Fold change vs veh, SH3YL1 / RFU, ZEB2 / Fold change vs veh, ZEB2 / RFU, NRIP1 / Fold change vs veh, NRIP1 / RFU, PTTG1IP / Fold change vs veh, PTTG1IP / RFU, CAPN2 / Fold change vs veh, CAPN2 / RFU, MED14 / Fold change vs veh, MED14 / RFU, SNORA58 / Fold change vs veh, SNORA58 / RFU, C1orf63 / Fold change vs veh, C1orf63 / RFU, LRRFIP1 / Fold change vs veh, LRRFIP1 / RFU, NDUFAF7 / Fold change vs veh, NDUFAF7 / RFU, SLC12A2 / Fold change vs veh, SLC12A2 / RFU, IBTK / Fold change vs veh, IBTK / RFU, ESF1 / Fold change vs veh, ESF1 / Fold change vs veh, TMEM50B / RFU, TAOK1 / Fold change vs veh, TAOK1 / RFU, ACBD3 / Fold change vs veh, ACBD3 / RFU, TMA16 / Fold change vs veh, TMA16 / RFU, RWDD3 / Fold change vs veh, RWDD3 / RFU, BCAT1 / Fold change vs veh, BCAT1 / RFU, EDEM3 / Fold change vs veh, EDEM3 / RFU, TMEM33 / Fold change vs veh, TMEM33 / RFU, WDR75 / Fold change vs veh, WDR75 / RFU, AHCTF1 / Fold change vs veh, AHCTF1 / RFU, TFRC / Fold change vs veh, TFRC / RFU, ZDHHC17 / Fold change vs veh, ZDHHC17 / RFU, NOM1 / Fold change vs veh, NOM1 / RFU, ARL8B / Fold change vs veh, ARL8B / RFU, ZBTB11 / Fold change vs veh, ZBTB11 / RFU, TAMM41 / Fold change vs veh, TAMM41 / RFU, KIAA1704 /// LOC100996395 / Fold change vs veh, KIAA1704 /// LOC100996395 / RFU, ING1 / Fold change vs veh, ING1 / RFU, TRMT61B / Fold change vs veh, TRMT61B / RFU, FUBP3 / Fold change vs veh, FUBP3 / RFU, TP53 / Fold change vs veh, TP53 / RFU, TNKS2 / Fold change vs veh, TNKS2 / RFU, ZFP14 / Fold change vs veh, ZFP14 / RFU, ACTR2 / Fold change vs veh, ACTR2 / RFU, PPP3R1 / Fold change vs veh, PPP3R1 / RFU, PIK3R1 / Fold change vs veh, PIK3R1 / RFU, HNRNPA1 / Fold change vs veh, HNRNPA1 / RFU, RNF170 / Fold change vs veh, RNF170 / RFU, ZNF28 / Fold change vs veh, ZNF28 / RFU, RNGTT / Fold change vs veh, RNGTT / RFU, OGT / Fold change vs veh, OGT / RFU, BRD1 / Fold change vs veh, BRD1 / RFU, MARS / Fold change vs veh, MARS / RFU, ZNF655 / Fold change vs veh, ZNF655 / RFU, FAHD1 / Fold change vs veh, FAHD1 / RFU, BDP1 / Fold change vs veh, BDP1 / RFU, LRRCC1 / Fold change vs veh, LRRCC1 / RFU, ARID1A / Fold change vs veh, ARID1A / RFU, ZNF146 / Fold change vs veh, ZNF146 / RFU, ZNF330 / Fold change vs veh, ZNF330 / RFU, GPN3 / Fold change vs veh, GPN3 / RFU, C9orf123 / Fold change vs veh, C9orf123 / RFU, N4BP2L2 / Fold change vs veh, N4BP2L2 / RFU, ARFIP1 / Fold change vs veh, ARFIP1 / RFU, FAM179B / Fold change vs veh, FAM179B / RFU, BCL10 / Fold change vs veh, BCL10 / RFU, UHRF1BP1L / Fold change vs veh, UHRF1BP1L / RFU, BET1 / Fold change vs veh, BET1 / RFU, CNOT2 / Fold change vs veh, CNOT2 / RFU, ZNF268 / Fold change vs veh, ZNF268 / Fold change vs veh, ZNF507 / RFU, DGCR2 / Fold change vs veh, DGCR2 / RFU, WDSUB1 / Fold change vs veh, WDSUB1 / Fold change vs veh, HSP90B1 /// MIR3652 / RFU, ADSS / Fold change vs veh, ADSS / RFU, GK / Fold change vs veh, GK / RFU, ZNF148 / Fold change vs veh, ZNF148 / RFU, TAF9 / Fold change vs veh, TAF9 / RFU, SLC1A5 / Fold change vs veh, SLC1A5 / RFU, SLMO2 / Fold change vs veh, SLMO2 / RFU, ABCC4 / Fold change vs veh, ABCC4 / RFU, LOC101060439 /// RAP1B / Fold change vs veh, LOC101060439 /// RAP1B / RFU, RFX7 / Fold change vs veh, RFX7 / RFU, GTPBP10 / Fold change vs veh, GTPBP10 / RFU, CNEP1R1 / Fold change vs veh, CNEP1R1 / RFU, BIVM-ERCC5 /// ERCC5 / Fold change vs veh, BIVM-ERCC5 /// ERCC5 / RFU, ILF3 / Fold change vs veh, ILF3 / RFU 11762660_at / Fold change /veh 11762660_at / RFU VCAN (11757783_s_at) / Fold change /veh VCAN (11757783_s_at) / RFU DDX43 (11728927_at) / Fold change /veh DDX43 (11728927_at) / RFU KRT8 (11758188_x_at) / Fold change /veh KRT8 (11758188_x_at) / RFU NKD1 (11759106_at) / Fold change /veh NKD1 (11759106_at) / RFU SRD5A1 (11742802_a_at) / Fold change /veh SRD5A1 (11742802_a_at) / RFU TPSAB1 /// TPSB2 (11721975_s_at) / Fold change /veh TPSAB1 /// TPSB2 (11721975_s_at) / RFU GSTM3 (11746129_a_at) / Fold change /veh GSTM3 (11746129_a_at) / RFU IL23R (11737362_x_at) / Fold change /veh IL23R (11737362_x_at) / RFU TMEM51 (11727254_a_at) / Fold change /veh TMEM51 (11727254_a_at) / RFU PIWIL2 (11732686_x_at) / Fold change /veh PIWIL2 (11732686_x_at) / RFU ORM1 (11744905_x_at) / Fold change /veh ORM1 (11744905_x_at) / RFU CCDC152 (11743942_at) / Fold change /veh CCDC152 (11743942_at) / RFU ECM1 (11717891_a_at) / Fold change /veh ECM1 (11717891_a_at) / RFU IL23R (11748794_a_at) / Fold change /veh IL23R (11748794_a_at) / RFU TNFAIP8L3 (11732012_x_at) / Fold change /veh TNFAIP8L3 (11732012_x_at) / RFU MBOAT4 (11741988_at) / Fold change /veh MBOAT4 (11741988_at) / RFU 11764193_at / Fold change /veh 11764193_at / RFU TMEM53 (11763286_at) / Fold change /veh TMEM53 (11763286_at) / RFU MAGEB2 (11727129_at) / Fold change /veh MAGEB2 (11727129_at) / RFU TMEM200A (11744735_a_at) / Fold change /veh TMEM200A (11744735_a_at) / RFU CCDC152 (11751479_a_at) / Fold change /veh CCDC152 (11751479_a_at) / RFU FAM211A (11726209_a_at) / Fold change /veh FAM211A (11726209_a_at) / RFU RGS16 (11746705_a_at) / Fold change /veh RGS16 (11746705_a_at) / RFU VCAN (11755009_s_at) / Fold change /veh VCAN (11755009_s_at) / RFU RHOB (11743442_s_at) / Fold change /veh RHOB (11743442_s_at) / RFU RGS16 (11720943_a_at) / Fold change /veh RGS16 (11720943_a_at) / RFU RGS16 (11720944_at) / Fold change /veh RGS16 (11720944_at) / RFU, VPS4B / Fold change vs veh, VPS4B / RFU, CREB1 / Fold change vs veh, CREB1 / RFU, DNAJC13 / Fold change vs veh, DNAJC13 / RFU, GNAQ / Fold change vs veh, GNAQ / RFU, CDK5R1 / Fold change vs veh, CDK5R1 / RFU, ZRANB3 / Fold change vs veh, ZRANB3 / RFU, CUL4A / Fold change vs veh, CUL4A / RFU, CCNY / Fold change vs veh, CCNY / RFU, UFL1 / Fold change vs veh, UFL1 / RFU, COG3 / Fold change vs veh, COG3 / RFU, DIAPH2 / Fold change vs veh, DIAPH2 / RFU, SKA2 / Fold change vs veh, SKA2 / RFU, AFF3 / Fold change vs veh, AFF3 / RFU, LMF1 / Fold change vs veh, LMF1 / RFU, IPO11 / Fold change vs veh, IPO11 / RFU, DFFB / Fold change vs veh, DFFB / RFU, FOXP1 / Fold change vs veh, FOXP1 / RFU, CARD8 / Fold change vs veh, CARD8 / RFU, STRN3 / Fold change vs veh, STRN3 / RFU, ADK / Fold change vs veh, ADK / RFU, RASSF2 / Fold change vs veh, RASSF2 / RFU, WIPF1 / Fold change vs veh, WIPF1 / RFU, LARP1B / Fold change vs veh, LARP1B / RFU, RASA1 / Fold change vs veh, RASA1 / RFU, RB1 / Fold change vs veh, RB1 / RFU, PPFIA1 / Fold change vs veh, PPFIA1 / RFU, MAT2A / Fold change vs veh, MAT2A / RFU, CCT5 / Fold change vs veh, CCT5 / RFU, WDR92 / Fold change vs veh, WDR92 / RFU, CUX1 / Fold change vs veh, CUX1 / RFU, TTC7A / Fold change vs veh, TTC7A / RFU, TMEM135 / Fold change vs veh, TMEM135 / RFU, DEPTOR / Fold change vs veh, DEPTOR / RFU, CPM / Fold change vs veh, CPM / RFU, DNAJB6 / Fold change vs veh, DNAJB6 / RFU, CACNA2D3 / Fold change vs veh, CACNA2D3 / RFU, DTX4 / Fold change vs veh, DTX4 / RFU, TFCP2 / Fold change vs veh, TFCP2 / RFU, GMCL1 /// GMCL1P1 / Fold change vs veh, GMCL1 /// GMCL1P1 / RFU, AEBP2 / Fold change vs veh, AEBP2 / RFU, SNHG1 /// SNORD22 /// SNORD25 /// SNORD26 /// SNORD27 /// SNORD28 /// SNORD29 /// SNORD31 / Fold change vs veh, SNHG1 /// SNORD22 /// SNORD25 /// SNORD26 /// SNORD27 /// SNORD28 /// SNORD29 /// SNORD31 / Fold change (Aza/veh), C12orf56 (ProbeSet 11735607_a_at) / Fold change (ACY-1035/veh), C12orf56 (ProbeSet 11735607_a_at) / Fold change (Aza/veh), FGFR1OP (ProbeSet 11751329_s_at) / Fold change (ACY-1035/veh), FGFR1OP (ProbeSet 11751329_s_at) / Fold change (Aza/veh), VPS36 (ProbeSet 11739960_a_at) / Fold change (ACY-1035/veh), VPS36 (ProbeSet 11739960_a_at) / RFU SYPL1 (11715823_x_at) / Fold change /veh SYPL1 (11715823_x_at) / RFU IGFBP7 (11715501_s_at) / Fold change /veh IGFBP7 (11715501_s_at) / RFU REEP3 (11722064_at) / Fold change /veh REEP3 (11722064_at) / RFU IGLL1 (11728026_x_at) / Fold change /veh IGLL1 (11728026_x_at): dose or concentration left out as unconfirmed
Details: ProbeSet 11741199_a_at; LIST B

## Nc1ccc(-c2cccs2)cc1NC(=O)c1ccc2c(c1)cc(C1CC1)n2CCN1CCOCC1 [ACY-1035]
  Fold change vs veh, LRRCC1: 0.84
